The numbers were not newly measured in patent US20040147522A1, “Compounds having both alpha7 nicotinic agonist activity and 5HT3 antagonist activity for the treatment of CNS diseases” (priority 2002, published 2004), which cites them from elsewhere.

The target of data set [1] is T1, 5HT3R (Homo sapiens, UniProt P46098).
T1 sequence (P46098 24-478): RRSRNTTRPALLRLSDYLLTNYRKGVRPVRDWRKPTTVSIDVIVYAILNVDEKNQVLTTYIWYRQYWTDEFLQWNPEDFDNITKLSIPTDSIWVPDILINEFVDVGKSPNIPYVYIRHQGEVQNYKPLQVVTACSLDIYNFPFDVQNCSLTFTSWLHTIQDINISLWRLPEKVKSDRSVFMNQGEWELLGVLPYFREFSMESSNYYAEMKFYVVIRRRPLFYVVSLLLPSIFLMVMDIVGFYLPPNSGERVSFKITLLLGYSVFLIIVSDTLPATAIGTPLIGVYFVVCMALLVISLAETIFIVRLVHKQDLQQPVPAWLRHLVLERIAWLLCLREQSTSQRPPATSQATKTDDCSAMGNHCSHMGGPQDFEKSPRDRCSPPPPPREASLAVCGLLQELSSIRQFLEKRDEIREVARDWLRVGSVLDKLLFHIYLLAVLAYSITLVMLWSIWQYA

Data set [2] addresses α7 nAChR (Homo sapiens, UniProt P36544).

α7 nAChR, sequence (P36544 23-502): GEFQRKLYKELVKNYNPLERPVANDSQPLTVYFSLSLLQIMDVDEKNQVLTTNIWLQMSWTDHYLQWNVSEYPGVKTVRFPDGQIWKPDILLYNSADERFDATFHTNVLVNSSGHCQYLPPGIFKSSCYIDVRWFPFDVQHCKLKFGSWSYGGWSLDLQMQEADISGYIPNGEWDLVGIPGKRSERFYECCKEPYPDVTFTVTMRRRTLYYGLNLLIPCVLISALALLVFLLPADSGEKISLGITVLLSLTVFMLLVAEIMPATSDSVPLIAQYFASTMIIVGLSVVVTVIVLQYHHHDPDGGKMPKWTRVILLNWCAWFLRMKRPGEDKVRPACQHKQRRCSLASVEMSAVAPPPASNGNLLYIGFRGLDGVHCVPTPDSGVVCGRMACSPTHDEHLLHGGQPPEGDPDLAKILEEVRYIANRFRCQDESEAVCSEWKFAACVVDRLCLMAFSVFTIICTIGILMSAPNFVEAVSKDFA

Consider `COc1ccc(/C=C2\CCCN=C2c2cccnc2)c(OC)c1` [GTS-21], for which the “activity at the 5HT3R” value in data set [1] is “little activity”.

Consider `CN1[C@@H]2CC[C@H]1C[C@@H](OC(=O)c1c[nH]c3ccccc13)C2` [tropesitron], for which the “α7 nicotinic agonist activity” value in data set [2] (reported by Macor et al. 2001) is given as “α7 nicotinic agonist activity”.

In the case of `Cc1nccn1CC1CCc2c(c3ccccc3n2C)C1=O` (stereo not drawn) [Ondansetron], the “activity at the α7 nAChR” value in data set [2] is reported as “little activity”.
